What was measured:
[1] = biological target: T1, Mnk2(h) (Homo sapiens, UniProt Q9HBH9); assay: Eurofins kinase panel; type: biochemical; conditions: read-out: Inhibition rate (%)
T1 construct: purchased Eurofins (KinaseProfiler)

[2] = biological target: T2, IKKε(h) (Homo sapiens, UniProt Q14164); assay: Eurofins kinase panel; type: biochemical; conditions: read-out: Inhibition rate (%)
T2 construct: purchased Eurofins (KinaseProfiler)
T2 sequence (Q14164 1-716): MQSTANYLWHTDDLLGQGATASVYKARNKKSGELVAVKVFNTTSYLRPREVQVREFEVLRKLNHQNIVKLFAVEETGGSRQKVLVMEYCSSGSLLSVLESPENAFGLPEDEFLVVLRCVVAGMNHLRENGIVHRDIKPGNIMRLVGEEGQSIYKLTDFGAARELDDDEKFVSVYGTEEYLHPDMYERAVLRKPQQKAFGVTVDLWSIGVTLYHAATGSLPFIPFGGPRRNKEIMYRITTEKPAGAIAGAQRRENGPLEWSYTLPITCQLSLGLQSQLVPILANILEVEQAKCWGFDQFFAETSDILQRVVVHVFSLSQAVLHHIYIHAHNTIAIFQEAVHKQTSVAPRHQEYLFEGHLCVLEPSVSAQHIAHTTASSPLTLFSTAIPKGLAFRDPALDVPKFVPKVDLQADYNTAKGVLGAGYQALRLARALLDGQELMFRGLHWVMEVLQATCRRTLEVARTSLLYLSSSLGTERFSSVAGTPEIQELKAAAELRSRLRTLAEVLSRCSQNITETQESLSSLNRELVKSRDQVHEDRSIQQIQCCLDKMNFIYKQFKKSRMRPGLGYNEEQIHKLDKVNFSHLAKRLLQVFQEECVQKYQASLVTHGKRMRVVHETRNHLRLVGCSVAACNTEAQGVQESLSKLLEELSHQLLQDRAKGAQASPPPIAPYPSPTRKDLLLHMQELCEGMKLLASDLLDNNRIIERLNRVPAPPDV

[3] = tested on: bFGF-induced primary HUVECs; assay: bFGF-induced HUVEC proliferation (CCK-8); type: cell-based, human
[4] = biological target: T3, MSK1(h) (Homo sapiens, UniProt O75582); assay: Eurofins kinase panel; type: biochemical; conditions: read-out: Inhibition rate (%)
T3 construct: purchased Eurofins (KinaseProfiler)
T3 sequence (O75582 whole entry): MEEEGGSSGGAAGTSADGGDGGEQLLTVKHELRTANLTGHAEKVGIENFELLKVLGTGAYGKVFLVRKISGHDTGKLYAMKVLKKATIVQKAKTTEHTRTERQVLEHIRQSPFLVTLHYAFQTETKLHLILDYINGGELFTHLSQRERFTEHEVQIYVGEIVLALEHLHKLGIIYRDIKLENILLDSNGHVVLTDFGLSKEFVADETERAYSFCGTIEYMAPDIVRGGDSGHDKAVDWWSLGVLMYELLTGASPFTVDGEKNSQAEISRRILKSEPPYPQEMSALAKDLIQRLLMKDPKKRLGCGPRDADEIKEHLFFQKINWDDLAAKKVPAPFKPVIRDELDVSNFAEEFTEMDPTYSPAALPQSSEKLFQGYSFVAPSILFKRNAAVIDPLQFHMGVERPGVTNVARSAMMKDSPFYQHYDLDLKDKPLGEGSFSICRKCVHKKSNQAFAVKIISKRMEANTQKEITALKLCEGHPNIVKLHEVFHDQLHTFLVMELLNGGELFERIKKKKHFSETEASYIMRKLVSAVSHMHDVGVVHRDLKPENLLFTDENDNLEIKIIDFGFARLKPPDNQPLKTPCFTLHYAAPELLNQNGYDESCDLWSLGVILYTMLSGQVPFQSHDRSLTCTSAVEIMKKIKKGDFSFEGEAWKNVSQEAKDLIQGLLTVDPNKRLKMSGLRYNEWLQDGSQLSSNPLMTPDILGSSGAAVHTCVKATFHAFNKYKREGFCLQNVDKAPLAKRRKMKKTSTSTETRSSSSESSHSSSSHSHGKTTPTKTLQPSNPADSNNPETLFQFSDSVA

[5] = biological target: T4, PKCι(h) (Homo sapiens, UniProt P41743); assay: Eurofins kinase panel; type: biochemical; conditions: read-out: Inhibition rate (%)
T4 construct: purchased Eurofins (KinaseProfiler)
T4 sequence (P41743 1-596): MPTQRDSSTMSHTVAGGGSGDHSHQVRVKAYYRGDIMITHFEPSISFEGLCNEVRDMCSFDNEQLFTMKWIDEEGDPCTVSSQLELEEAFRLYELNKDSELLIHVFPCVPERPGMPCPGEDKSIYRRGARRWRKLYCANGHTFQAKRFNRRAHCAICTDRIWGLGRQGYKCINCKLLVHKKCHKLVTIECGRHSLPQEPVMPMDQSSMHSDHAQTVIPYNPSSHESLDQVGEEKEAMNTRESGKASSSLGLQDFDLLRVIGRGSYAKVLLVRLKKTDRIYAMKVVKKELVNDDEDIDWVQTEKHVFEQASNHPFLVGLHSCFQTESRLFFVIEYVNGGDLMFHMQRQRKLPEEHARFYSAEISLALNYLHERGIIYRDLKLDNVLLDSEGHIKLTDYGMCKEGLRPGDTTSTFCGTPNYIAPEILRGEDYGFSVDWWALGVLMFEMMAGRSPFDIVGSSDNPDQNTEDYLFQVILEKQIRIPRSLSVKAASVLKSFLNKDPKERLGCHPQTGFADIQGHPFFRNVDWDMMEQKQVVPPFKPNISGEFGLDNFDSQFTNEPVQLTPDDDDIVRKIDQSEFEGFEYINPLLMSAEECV

[6] = biological target: T5, FGFR3 (Homo sapiens, UniProt P22607); assay: Kinase inhibition assay (ELISA); type: biochemical; conditions: mean ± SD
T5 construct: purchased Eurofins (Fremont, United States)

[7] = biological target: T6, RIPK2(h) (Homo sapiens, UniProt O43353); assay: Eurofins kinase panel; type: biochemical; conditions: read-out: Inhibition rate (%)
T6 construct: purchased Eurofins (KinaseProfiler)
T6 sequence (O43353 whole entry): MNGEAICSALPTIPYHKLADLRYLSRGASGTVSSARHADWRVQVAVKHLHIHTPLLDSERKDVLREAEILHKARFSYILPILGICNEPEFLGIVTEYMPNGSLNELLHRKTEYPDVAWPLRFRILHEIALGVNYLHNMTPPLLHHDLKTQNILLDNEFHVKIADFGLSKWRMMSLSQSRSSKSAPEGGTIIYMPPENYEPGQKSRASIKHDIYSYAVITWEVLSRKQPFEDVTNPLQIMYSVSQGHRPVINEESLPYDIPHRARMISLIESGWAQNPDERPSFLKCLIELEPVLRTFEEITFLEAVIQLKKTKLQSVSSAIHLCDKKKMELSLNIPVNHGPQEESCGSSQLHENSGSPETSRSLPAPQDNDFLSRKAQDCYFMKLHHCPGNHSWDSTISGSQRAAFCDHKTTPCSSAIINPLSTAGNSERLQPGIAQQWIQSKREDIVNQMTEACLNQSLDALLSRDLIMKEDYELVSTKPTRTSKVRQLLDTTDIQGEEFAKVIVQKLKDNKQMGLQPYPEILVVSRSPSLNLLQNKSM

[8] = biological target: T7, BTK(R28H)(h) (Homo sapiens, UniProt Q06187, R28H); assay: Eurofins kinase panel; type: biochemical; conditions: read-out: Inhibition rate (%)
T7 construct: purchased Eurofins (KinaseProfiler)
T7 sequence (Q06187 whole entry R28H): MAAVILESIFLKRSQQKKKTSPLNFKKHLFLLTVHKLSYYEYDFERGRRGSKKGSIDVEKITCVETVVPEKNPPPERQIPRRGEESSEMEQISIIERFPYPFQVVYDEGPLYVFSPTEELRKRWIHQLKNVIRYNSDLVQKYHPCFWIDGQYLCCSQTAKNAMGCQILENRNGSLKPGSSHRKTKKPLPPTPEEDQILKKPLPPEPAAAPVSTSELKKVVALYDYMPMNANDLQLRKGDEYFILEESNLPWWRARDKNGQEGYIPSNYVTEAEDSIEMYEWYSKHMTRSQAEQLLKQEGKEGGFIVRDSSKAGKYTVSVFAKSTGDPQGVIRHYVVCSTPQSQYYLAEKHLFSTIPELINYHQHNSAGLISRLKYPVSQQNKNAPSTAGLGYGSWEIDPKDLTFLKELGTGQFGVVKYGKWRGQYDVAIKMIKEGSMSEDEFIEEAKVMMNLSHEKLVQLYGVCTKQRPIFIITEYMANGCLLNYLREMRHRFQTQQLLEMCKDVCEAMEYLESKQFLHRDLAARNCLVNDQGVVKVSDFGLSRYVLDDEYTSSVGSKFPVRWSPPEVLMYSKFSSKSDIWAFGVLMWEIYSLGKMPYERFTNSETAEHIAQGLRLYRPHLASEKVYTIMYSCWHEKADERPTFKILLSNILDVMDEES

[9] = biological target: T8, cKit(V654A)(h) (Homo sapiens, UniProt P10721, V654A); assay: Eurofins kinase panel; type: biochemical; conditions: read-out: Inhibition rate (%)
T8 construct: purchased Eurofins (KinaseProfiler)
T8 sequence (P10721 26-976 V654A): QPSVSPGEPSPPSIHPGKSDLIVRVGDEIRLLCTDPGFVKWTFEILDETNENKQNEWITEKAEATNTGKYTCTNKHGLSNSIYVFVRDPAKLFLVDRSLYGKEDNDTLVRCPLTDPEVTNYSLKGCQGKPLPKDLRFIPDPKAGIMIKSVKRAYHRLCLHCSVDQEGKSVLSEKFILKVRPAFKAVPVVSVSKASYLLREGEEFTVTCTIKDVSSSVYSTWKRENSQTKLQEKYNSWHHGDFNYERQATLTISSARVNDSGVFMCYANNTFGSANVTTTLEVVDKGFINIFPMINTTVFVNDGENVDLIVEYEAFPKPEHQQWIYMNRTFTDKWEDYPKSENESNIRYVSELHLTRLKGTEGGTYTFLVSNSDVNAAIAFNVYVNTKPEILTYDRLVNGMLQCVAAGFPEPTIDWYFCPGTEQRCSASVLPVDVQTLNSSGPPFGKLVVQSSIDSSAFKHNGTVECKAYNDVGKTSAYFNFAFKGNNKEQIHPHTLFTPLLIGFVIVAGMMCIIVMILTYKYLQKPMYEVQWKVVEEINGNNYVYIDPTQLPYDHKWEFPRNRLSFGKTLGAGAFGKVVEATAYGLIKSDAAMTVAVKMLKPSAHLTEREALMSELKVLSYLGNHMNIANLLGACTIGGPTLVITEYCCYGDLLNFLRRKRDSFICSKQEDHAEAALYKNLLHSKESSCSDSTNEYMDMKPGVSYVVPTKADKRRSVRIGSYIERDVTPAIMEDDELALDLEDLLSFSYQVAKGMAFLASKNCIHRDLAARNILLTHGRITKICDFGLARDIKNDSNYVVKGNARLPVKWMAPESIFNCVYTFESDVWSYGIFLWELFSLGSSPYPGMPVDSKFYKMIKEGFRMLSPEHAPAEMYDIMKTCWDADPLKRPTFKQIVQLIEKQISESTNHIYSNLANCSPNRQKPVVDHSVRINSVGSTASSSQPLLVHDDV

[10] = biological target: T9, CDK9/cyclin T1(h) (Homo sapiens, UniProt P50750); assay: Eurofins kinase panel; type: biochemical; conditions: read-out: Inhibition rate (%)
T9 construct: purchased Eurofins (KinaseProfiler)

[11] = biological target: T10, SIK2(h) (Homo sapiens, UniProt Q9H0K1); assay: Eurofins kinase panel; type: biochemical; conditions: read-out: Inhibition rate (%)
T10 construct: purchased Eurofins (KinaseProfiler)
T10 sequence (Q9H0K1 whole entry): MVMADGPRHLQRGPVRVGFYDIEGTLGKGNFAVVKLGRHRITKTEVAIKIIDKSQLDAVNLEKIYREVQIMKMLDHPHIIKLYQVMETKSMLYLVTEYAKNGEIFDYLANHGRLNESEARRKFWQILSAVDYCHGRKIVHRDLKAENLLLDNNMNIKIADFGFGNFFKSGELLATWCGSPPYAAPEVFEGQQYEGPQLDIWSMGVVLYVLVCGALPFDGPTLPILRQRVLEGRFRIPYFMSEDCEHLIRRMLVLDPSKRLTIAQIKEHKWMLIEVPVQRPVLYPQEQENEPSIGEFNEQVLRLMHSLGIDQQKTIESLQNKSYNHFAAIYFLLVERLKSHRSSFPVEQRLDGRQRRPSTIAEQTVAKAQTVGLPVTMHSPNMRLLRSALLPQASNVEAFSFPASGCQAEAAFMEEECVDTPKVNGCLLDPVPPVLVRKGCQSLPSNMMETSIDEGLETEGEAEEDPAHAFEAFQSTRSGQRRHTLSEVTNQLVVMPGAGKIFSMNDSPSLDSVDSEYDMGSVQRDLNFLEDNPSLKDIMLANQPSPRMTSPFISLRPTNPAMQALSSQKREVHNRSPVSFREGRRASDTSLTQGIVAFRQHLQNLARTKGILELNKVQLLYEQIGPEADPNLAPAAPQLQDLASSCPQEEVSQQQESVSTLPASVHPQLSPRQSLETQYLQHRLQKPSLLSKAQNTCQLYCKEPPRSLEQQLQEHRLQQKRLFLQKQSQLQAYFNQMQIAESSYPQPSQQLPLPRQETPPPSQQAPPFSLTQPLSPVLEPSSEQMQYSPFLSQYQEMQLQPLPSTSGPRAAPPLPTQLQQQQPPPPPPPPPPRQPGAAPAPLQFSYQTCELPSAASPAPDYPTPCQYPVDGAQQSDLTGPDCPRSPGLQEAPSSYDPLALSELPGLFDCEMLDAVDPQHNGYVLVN

[12] = tested on: BMDM (CSF-2); assay: Macrophage survival (CCK-8); type: cell-based, murine; conditions: Mus musculus, BMDM, 168 h; 7 days
Protocol: Murine bone marrow-derived macrophages (BMDMs) and PBMCs were used for cell viability studies. BMDMs were harvested by flushing the tibias and femurs of 6- to 8-week-old C57BL/6 mice and depleting red blood cells (RBCs) by RBC lysis (Biogems). For BMDM survival, the cells were cultured for 7 days in RPMI 1640 containing 10% fetal bovine serum (FBS), 100 U/mL penicillin, 100 μg/mL streptomycin and 100 ng/mL mouse CSF-1 (or CSF-2) with or without the tested compounds. PBMCs were obtained from HemaCare and cultured for 7 days in RPMI 1640 containing 10% fetal bovine serum (FBS), 100 U/mL penicillin, 100 μg/mL streptomycin and 100 ng/mL human CSF-1 (or CSF-2) with or without the tested compounds. Cell viability was measured using the CCK-8 assay. For IL-4/IL-13-induced macrophage survival analysis, viable cells were counted by trypan blue exclusion.

T1 sequence (Q9HBH9 whole entry): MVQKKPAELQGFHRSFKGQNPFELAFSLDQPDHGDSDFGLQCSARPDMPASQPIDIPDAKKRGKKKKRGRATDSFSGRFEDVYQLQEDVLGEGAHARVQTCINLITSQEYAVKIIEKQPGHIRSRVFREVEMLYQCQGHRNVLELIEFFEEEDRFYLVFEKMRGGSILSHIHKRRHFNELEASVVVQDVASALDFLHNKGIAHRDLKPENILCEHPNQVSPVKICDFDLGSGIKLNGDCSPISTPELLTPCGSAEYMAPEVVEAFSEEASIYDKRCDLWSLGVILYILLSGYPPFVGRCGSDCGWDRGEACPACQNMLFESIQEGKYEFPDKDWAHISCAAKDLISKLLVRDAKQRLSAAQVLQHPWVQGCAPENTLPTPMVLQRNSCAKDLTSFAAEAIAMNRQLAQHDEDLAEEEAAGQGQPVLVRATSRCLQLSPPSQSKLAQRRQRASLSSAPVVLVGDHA

## COc1cc(OC)c(Cl)c(-c2ccc3c(NC(=O)c4ccc(N5CCNC(C)(C)C5)cc4)n[nH]c3n2)c1Cl [3D185]
[1]; 10 nM
  inhibition at 0.01 µM: -2%
[1]; 100 nM
  inhibition at 0.1 µM: -10%
[1]; 1000 nM
  inhibition at 1 µM: -9%
[2]; 10 nM
  inhibition at 0.01 µM: -4%
[2]; 100 nM
  inhibition at 0.1 µM: 2%
[2]; 1000 nM
  inhibition at 1 µM: 5%
[3]; Homo sapiens, HUVEC, bFGF 100 ng/mL, 48 h
  IC50: 0.5 nM
[3]; cellular assays
  fold more potent on bFGF-induced than VEGF-induced HUVEC proliferation: greater than 176 fold
[4]; 10 nM
  inhibition at 0.01 µM: 31%
[4]; 100 nM
  inhibition at 0.1 µM: 19%
[4]; 1000 nM
  inhibition at 1 µM: 24%
[5]; 10 nM
  inhibition at 0.01 µM: -1%
[5]; 100 nM
  inhibition at 0.1 µM: 0%
[5]; 1000 nM
  inhibition at 1 µM: -1%
[6]
  IC50: 3.6 nM
[7]; 10 nM
  inhibition at 0.01 µM: 2%
[7]; 100 nM
  inhibition at 0.1 µM: 6%
[7]; 1000 nM
  inhibition at 1 µM: 3%
[8]; 10 nM
  inhibition at 0.01 µM: -3%
[8]; 100 nM
  inhibition at 0.1 µM: -2%
[8]; 1000 nM
  inhibition at 1 µM: -4%
[9]; 10 nM
  inhibition at 0.01 µM: 4%
[9]; 100 nM
  inhibition at 0.1 µM: 14%
[9]; 1000 nM
  inhibition at 1 µM: 37%
[10]; 10 nM
  inhibition at 0.01 µM: -12%
[10]; 100 nM
  inhibition at 0.1 µM: 0%
[10]; 1000 nM
  inhibition at 1 µM: 4%
[11]; 10 nM
  inhibition at 0.01 µM: 7%
[11]; 100 nM
  inhibition at 0.1 µM: 5%
[11]; 1000 nM
  inhibition at 1 µM: 4%
[12]
  IC50: > 1000 nM

— article PMC6704710, “Preclinical evaluation of 3D185, a novel potent inhibitor of FGFR1/2/3 and CSF-1R, in FGFR-dependent and macrophage-dominant cancer models” (Journal of Experimental & Clinical Cancer Research : CR, 2019)
